Like-named read-outs stand apart in the source and are kept apart here.
Experiments:
MTOR_h = target: T1, MTOR_h (Homo sapiens, UniProt P42345); test: Enzyme binding assay (KINOMEscan), MTOR; details: DiscoveRx
T1 construct: purchased DiscoveRx Corporation
Protocol: (§1) Enzyme Binding Assays (KINOMEscan®)
(§2) Kinase enzyme binding affinities of compounds disclosed herein were determined using the KINOMEscan technology performed by DiscoveRx Corporation, San Diego, Calif., USA (www.kinomescan.com). Table A reports the obtained Kd values (nM), with the Kd being the inhibitor binding constant: […]

[1] = test system: phosphorylation of Akt at Ser473 in PC-3 cells; test: Cellular assay: phospho-Akt (Ser473) MSD ELISA in PC-3 cells; assay type: cell-based; details: 60 min incubation with compound, read-out: IC50 pAkt_S473
Protocol: (§3) Cellular activity of PI3Kβ inhibitors was determined by quantifying the phosphorylation of Akt in PC-3 cells. Akt phosphorylated at Ser473 and Thr308 were measured using an enzyme-linked immunosorbent assay (ELISA; Meso Scale Discovery (MSD), Gaithersburg, Md.) and specific primary antibodies from MSD.
(§4) On day 1, PC3 cells (ATCC # […]) were seeded into PerkinElmer MW96 plates at 25.000 cells per well, in 75 μl complete culture medium (DMEM high glucose, AQmedia™, D0819, Sigma-Aldrich) containing 10% heat inactivated FCS and incubated at 37° C., 5% CO2 during 24 hours. On day 2, compound or DMSO (0.3%) was added and cells were further incubated for 60 min at 37° C., 5% CO2 in a total volume of 100 μl of medium.
(§5) The phosphoprotein assay was executed according to vendor instructions in the Phospho-Akt (Ser473) Assay Whole Cell Lysate Kit (MSD # K15100D-3) and the Phospho-Akt (Thr308) Assay Whole Cell Lysate Kit (MSD # K151DYD-3) using the lysis, blocking and wash buffer provided.
(§6) Briefly, at the end of the cell treatment period, media were removed by aspiration and adherent cells were lysed in 50 μl ice-cold lysis buffer. MSD plates are supplied pre-coated with capture antibodies for Phospho-Akt (Ser473 and Thr308). After blocking, lysates from tissue culture plates were added and plates were washed. Then, a solution containing the detection antibody (anti-total Akt conjugated with an electrochemiluminescent compound-MSD Sulfo-tag label) was added. The signals were detected using an MSD SECTOR Imager 6000 and are proportional to the phospho-Akt titres.
(§7) Data were processed. The percentage of inhibition was plotted against the log concentration of test compounds, and the sigmoidal log concentration-effect curve of best fit was calculated by nonlinear regression analysis. From these concentration-response curves, the IC50 values were calculated. Five concentrations were used for curve fitting.

[2] = test system: phosphorylation of Akt at Thr308 in PC-3 cells; test: Cellular assay: phospho-Akt (Thr308) MSD ELISA in PC-3 cells; assay type: cell-based; details: 60 min incubation with compound, read-out: IC50 pAkt_Thr308
Protocol: as §3, §4, §5, §6, §7

PIK3Cδ_h = target: T2, PIK3Cδ_h (Homo sapiens, UniProt O00329); test: Enzyme binding assay (KINOMEscan), PIK3Cδ; details: DiscoveRx
T2 construct: purchased DiscoveRx Corporation
T2 sequence (O00329 1-1044): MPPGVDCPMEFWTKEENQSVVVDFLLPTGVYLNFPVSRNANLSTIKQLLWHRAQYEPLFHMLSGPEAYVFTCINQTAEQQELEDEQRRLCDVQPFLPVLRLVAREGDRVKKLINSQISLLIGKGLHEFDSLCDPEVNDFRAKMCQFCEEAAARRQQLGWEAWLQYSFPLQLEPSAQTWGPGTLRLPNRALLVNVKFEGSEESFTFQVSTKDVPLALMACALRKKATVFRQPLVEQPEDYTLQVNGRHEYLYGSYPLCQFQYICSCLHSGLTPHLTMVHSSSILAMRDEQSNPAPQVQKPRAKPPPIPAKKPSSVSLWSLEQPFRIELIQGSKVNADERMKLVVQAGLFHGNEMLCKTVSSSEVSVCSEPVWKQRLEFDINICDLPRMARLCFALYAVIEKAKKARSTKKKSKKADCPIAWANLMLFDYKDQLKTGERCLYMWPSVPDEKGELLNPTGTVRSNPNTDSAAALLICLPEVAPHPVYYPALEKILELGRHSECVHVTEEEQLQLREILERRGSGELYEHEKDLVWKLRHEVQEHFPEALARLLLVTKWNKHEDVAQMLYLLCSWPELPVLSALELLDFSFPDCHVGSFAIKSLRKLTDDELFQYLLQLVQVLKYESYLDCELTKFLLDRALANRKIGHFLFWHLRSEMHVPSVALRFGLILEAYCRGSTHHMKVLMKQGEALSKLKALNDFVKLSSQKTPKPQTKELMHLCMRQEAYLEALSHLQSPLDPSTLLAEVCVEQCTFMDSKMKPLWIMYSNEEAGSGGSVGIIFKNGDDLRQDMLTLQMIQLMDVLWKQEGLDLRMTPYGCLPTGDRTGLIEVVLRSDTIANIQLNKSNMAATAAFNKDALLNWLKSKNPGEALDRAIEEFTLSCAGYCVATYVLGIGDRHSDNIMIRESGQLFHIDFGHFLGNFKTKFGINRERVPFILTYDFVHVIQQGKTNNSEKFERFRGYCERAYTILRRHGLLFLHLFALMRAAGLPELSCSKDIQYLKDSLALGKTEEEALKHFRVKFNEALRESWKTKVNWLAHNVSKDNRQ
Protocol: as §1, §2

PIK3Cβ_h = target: T3, PIK3Cβ_h (Homo sapiens, UniProt P42338); test: Enzyme binding assay (KINOMEscan), PIK3Cβ; details: DiscoveRx
T3 construct: purchased DiscoveRx Corporation
Protocol: as §1, §2

PIK3Cα_h = target: T4, PIK3Cα_h (Homo sapiens, UniProt P42336); test: Enzyme binding assay (KINOMEscan), PIK3Cα; details: DiscoveRx
T4 construct: purchased DiscoveRx Corporation
Protocol: as §1, §2

PIK3Cγ_h = target: T5, PIK3Cγ_h (Homo sapiens, UniProt P48736); test: Enzyme binding assay (KINOMEscan), PIK3Cγ; details: DiscoveRx
T5 construct: purchased DiscoveRx Corporation
Protocol: as §1, §2

T5 sequence (P48736 whole entry): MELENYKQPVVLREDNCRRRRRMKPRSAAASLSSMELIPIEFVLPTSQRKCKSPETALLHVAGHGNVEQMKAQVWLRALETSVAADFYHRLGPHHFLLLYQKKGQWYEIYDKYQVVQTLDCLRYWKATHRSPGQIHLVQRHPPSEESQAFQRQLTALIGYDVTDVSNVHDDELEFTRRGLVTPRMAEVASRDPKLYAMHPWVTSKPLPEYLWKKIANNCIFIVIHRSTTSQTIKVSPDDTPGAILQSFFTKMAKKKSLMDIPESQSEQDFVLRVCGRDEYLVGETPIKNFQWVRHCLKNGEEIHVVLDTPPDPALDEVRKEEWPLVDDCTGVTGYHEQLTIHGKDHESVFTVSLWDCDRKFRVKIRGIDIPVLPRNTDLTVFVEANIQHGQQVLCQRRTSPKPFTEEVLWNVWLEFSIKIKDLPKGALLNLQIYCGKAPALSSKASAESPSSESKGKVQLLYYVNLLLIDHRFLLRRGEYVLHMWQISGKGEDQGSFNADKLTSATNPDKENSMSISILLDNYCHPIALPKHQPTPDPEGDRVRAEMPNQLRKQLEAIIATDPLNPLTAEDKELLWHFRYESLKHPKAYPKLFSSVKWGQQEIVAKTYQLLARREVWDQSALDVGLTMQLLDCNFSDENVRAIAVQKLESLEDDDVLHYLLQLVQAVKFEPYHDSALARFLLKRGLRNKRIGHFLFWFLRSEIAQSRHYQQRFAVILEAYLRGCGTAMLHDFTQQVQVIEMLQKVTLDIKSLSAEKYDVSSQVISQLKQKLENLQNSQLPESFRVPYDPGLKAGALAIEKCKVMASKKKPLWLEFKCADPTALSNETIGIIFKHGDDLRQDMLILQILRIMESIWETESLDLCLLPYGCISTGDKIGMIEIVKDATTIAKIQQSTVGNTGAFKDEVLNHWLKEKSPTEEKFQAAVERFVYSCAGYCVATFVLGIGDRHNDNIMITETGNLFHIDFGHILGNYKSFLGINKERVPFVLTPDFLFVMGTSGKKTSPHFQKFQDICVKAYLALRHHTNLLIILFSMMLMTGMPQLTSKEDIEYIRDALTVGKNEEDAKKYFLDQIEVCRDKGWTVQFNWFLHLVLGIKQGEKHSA
T4 sequence (P42336 whole entry): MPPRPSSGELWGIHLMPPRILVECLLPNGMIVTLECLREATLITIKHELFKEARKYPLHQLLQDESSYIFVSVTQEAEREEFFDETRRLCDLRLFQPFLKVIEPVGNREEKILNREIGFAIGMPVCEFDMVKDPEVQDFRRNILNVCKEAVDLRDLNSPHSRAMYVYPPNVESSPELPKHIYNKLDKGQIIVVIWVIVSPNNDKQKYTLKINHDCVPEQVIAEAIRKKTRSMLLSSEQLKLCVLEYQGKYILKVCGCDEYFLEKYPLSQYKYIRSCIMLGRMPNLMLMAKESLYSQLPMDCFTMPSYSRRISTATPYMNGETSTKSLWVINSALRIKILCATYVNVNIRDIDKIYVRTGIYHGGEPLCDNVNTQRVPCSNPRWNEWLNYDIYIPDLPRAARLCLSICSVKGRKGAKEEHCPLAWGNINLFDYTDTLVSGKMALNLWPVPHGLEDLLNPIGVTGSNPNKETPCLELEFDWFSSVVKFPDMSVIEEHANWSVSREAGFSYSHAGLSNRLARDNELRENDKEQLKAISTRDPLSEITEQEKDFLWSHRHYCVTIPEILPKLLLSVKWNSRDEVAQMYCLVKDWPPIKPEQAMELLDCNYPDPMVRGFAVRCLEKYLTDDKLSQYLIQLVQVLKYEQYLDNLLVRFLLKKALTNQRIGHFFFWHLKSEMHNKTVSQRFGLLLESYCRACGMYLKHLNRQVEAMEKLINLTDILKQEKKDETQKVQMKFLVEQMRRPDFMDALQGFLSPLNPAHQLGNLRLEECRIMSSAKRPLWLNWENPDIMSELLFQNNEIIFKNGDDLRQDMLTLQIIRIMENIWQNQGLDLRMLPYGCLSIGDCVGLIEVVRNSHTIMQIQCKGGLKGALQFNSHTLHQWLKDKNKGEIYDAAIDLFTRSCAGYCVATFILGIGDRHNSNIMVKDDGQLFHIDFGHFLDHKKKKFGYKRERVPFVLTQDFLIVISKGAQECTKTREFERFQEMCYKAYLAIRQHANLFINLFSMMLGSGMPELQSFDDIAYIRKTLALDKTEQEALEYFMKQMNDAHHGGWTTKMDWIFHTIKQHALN
T3 sequence (P42338 whole entry): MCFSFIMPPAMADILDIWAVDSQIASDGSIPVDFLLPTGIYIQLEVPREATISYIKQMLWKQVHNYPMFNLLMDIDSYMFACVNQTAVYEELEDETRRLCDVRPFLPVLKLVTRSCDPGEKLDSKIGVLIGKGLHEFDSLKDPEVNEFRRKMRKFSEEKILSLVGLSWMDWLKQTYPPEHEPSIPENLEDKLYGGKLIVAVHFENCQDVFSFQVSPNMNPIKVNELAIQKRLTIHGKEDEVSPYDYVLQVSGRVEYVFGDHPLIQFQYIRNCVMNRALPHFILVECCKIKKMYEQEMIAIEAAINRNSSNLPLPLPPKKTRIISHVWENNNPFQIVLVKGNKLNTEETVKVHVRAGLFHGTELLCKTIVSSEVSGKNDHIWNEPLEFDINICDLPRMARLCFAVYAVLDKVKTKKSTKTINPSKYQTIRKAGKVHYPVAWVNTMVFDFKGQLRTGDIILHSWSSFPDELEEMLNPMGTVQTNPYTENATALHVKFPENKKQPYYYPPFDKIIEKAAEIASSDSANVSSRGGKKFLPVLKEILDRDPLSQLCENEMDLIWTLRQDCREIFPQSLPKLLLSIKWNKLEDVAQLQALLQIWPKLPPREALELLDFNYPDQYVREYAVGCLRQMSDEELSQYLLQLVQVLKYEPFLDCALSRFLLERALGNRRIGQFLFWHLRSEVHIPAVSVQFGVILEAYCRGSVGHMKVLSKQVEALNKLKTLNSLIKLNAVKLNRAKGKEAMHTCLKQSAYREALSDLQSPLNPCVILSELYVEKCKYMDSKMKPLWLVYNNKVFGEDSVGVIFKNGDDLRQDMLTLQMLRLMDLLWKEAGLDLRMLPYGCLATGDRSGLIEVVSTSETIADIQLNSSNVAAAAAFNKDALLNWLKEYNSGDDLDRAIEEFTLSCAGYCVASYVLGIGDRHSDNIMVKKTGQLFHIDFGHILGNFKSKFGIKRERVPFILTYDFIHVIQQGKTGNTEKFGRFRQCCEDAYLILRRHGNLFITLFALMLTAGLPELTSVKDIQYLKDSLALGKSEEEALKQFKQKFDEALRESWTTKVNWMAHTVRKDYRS

SMILES | Kd (MTOR_h) [nM] | IC50 [1] [nM] | IC50 [2] [nM] | Kd (PIK3Cδ_h) [nM] | Kd (PIK3Cβ_h) [nM] | melting point [°C] | Kd (PIK3Cα_h) [nM] | Kd (PIK3Cγ_h) [nM] | IC50 ([1]; Homo sapiens, PC-3, 1 h) [nM] | IC50 ([2]; Homo sapiens, PC-3, 1 h) [nM]
CC(Nc1cncc(F)c1)c1cc(C(=O)N2CC3(C2)CS(=O)(=O)C3)cc2ncc(N3CCOCC3)nc12 (single isomer, unassigned) [Compound 32] | > 30200 | > 513 | > 513 | 22400 | 5490 | 180 | > 30200 | > 30200 |  | 
Cc1cc(N2CCCC2c2cc(C(=O)N(C)C)cc3ncc(N4CCOCC4)nc23)nc(C)n1 (centres unmarked) [Compound 3] | > 30200 |  |  | 25100 | 2040 | 186 | > 30200 | > 30200 | > 513 | > 513
CC(Nc1cncc(Cl)n1)c1cc(C(=O)N(C)C)cc2ncc(N3CCOCC3)nc12 (centres unmarked) [Compound 25] | > 30200 |  |  | 1320 | 21 | 225 | 16200 | 28800 | > 513 | 468
CC(Nc1cncc(F)c1)c1cc(C(=O)NCCN(C)C)cc2ncc(N3CCOCC3)nc12 (single isomer, unassigned) [Compound 35] | 12000 | > 513 | > 513 | 1440 | 8 | 190 | 15500 | 4790 |  | 
Cc1ccncc1CNc1cc(C(=O)NCCO)cc2ncc(N3CCOCC3)nc12 [Compound 28] | 30900 |  |  | 15500 | 1260 | 244 | 16200 | 25700 | > 513 | > 513
CC(Nc1cncc(F)c1)c1cc(C(=O)N2CC3(C2)CS(=O)(=O)C3)cc2ncc(N3CCOCC3)nc12 (single isomer, unassigned) [Compound 31] | > 30200 |  | ~72 | 1480 | 9 | 160 | 2820 | 16600 | > 513 | 
CN(C)CCNC(=O)c1cc(C2CCCN2c2cncc(F)c2)c2nc(N3CCOCC3)cnc2c1 (centres unmarked) [Compound 36] | > 30200 |  |  | 295 | 0.1 | 206 | 1700 | 3390 | 5 | 4
Cc1cc(N2CCCC2c2cc(C(=O)N(C)C)cc3ncc(N4CCOCC4)nc23)cc(C)n1 (centres unmarked) [Compound 2] | > 30200 |  |  | 5890 | 162 | 138 | > 30200 | 20900 | > 513 | > 513
O=C(NCCO)c1cc(C2CCCN2c2cncc(F)c2)c2nc(N3CCOCC3)cnc2c1 (centres unmarked) [Compound 43] | 11500 |  |  | 166 | 3 | 191 | 447 | 1000 | ~2 | 40
CNCCNC(=O)c1cc(C2CCCN2c2ccnc(Cl)c2)c2nc(N3CCOCC3)cnc2c1 (centres unmarked) [Compound 48] | > 30200 |  |  | 372 | 2 | 80 | 10000 | 18200 | > 513 | > 513
CN(C)C(=O)c1cc(C2CCCN2c2cc(Cl)ncn2)c2nc(N3CCOCC3)cnc2c1 (centres unmarked) [Compound 1] | > 30200 |  |  | 1410 | 42 | 80 | 16600 | > 30200 | > 513 | > 513
O=C(c1cc(C2CCCN2c2cncc(F)c2)c2nc(N3CCOCC3)cnc2c1)N1CC2(C1)CS(=O)(=O)C2 (centres unmarked) [Compound 44] | 31600 |  |  | 240 | 2 | 130 | 575 | 4070 | 49 | 30
CC(Nc1cncc(F)c1)c1cc(C(=O)NCCN(C)C)cc2ncc(N3CCOCC3)nc12 (single isomer, unassigned) [Compound 34] | > 30200 | 14 | 7 | 166 | 0.4 | 194 | 2190 | 3890 |  | 

Reference: patent US20200181132A1, “QUINOXALINE AND PYRIDOPYRAZINE DERIVATIVES AS PI3K-BETA INHIBITORS” (JANSSEN PHARMACEUTICA NV, priority 2017, published 2020)
